pIC50: −log10 of the molar value. Read-outs that look alike come from different tables or passages of the source.

The values below come from patent US11708391B2, “Rapaglutins, novel inhibitors of GLUT and use thereof” (The Johns Hopkins University, priority 2016, dated 2023).

One assay relates to colon cancer RKO. The assay can be described thus: alamar blue assay, RKO. Format: cell-based, human. An excerpt: (§1) Dose-dependent inhibition of cell proliferation by A18 and E11 was next evaluated in several other human cancer cell lines, including breast cancer HCC1954, pancreatic cancer PANC10.05, leukemia Jurkat T and colon cancer RKO (FIGS. 1b and 1c). […] (FIGS. 1 and 9; Table 3)

A further assay concerns HEK 293T. The assay can be described thus: flow cytometric cell cycle analysis in HEK 293T. In kind it is cell-based. To be noted: 5 μM, 24 h. How it is done: FIGS. 25A-25C. A18 and E11 inhibit cell cycle progression in the S phase. HEK 293T were incubated with DMSO (a), 5 μM A18 (b) or 5 μM E11 (c) for 24 h before they were harvested for cell cycle analysis.
On the technique in general: In flow cytometry, cells or beads pass a laser one at a time.

In another assay the test system is DLD-1 wild type. The assay can be described thus: alamar blue cell viability assay, DLD-1 wild type. Format: cell-based. An excerpt: (§2) FIGS. 19A-19C. E11 is a specific inhibitor of Glut1. (a)(b) Inhibition of cell proliferation in A549, DLD-1 wild type and Glut1 knock out cells by A18 and E11. (c) Potency of A18 and E11 against the alamar blue assay in A549, DLD-1 wild type and Glut1 knock out cells.
(§3) Up to now, at least 14 different isoforms of GLUTs have been identified in human cells. It was then asked whether A18 and E11 are specific inhibitors of GLUT1. To answer this question, colon cancer DLD-1 wild type and GLUT1 gene knock out cell lines were chosen as a cell model (FIG. 4a). […] GLUTs that are most relevant to cancer are Glut1 and Glut3. To obtain additional evidence, Glut1 and Glut3 in HEK 293T cells were overexpressed and an alamar blue cell viability assay was performed again. […] (see FIGS. 4, 19, 20, 26; Table 4).

A further assay deals with mTOR. The assay can be described thus: Western blot, mTOR / S6K in HEK 293T. In kind it is cell-based. The text has this:
(§4) FIGS. 7A-7B. (a) A18 activates AMPK and inhibits S6K in HEK 293T cells. […] (b) A18 and E11 activate AMPK and inhibit S6K in HEK 293T cells.
(§5) Whether A18 and E11 treatment affect key cell growth signaling proteins was examined next. […] But it has no effects on the phosphorylation of ERK, AKT or JNK (FIG. 7). As previously reported, AMPK is likely to act as the key link between the ATP reduction and the subsequent cancer cell inhibition. (FIGS. 7 and 23-25). Based on the data reported here, the working model for A18 and E11 was proposed as outlined in FIG. 8. […] These led to upregulation of phosphorylation of AMPK and downregulation of phosphorylation of S6K. […] (FIG. 8)

The next assay relates to HEK293T. The assay can be described thus: alamar blue assay, HEK293T. In kind it is cell-based.
Excerpt: as §1, §3
(Resazurin is reduced to fluorescent resorufin, in cell work by metabolically active cells.)

For another assay, the system named is T1, glucose transporters.
T1 construct: IC50 uptake of 3H-labeled 3-O-methylglucose; other: A549 cells; compared with 3-O-methylglucose uptake; other: A549 cells treated with drugs for 1 min; other: A549 cells, glucose uptake assay; other
The assay can be described thus: 3-O-methyl-D-[3H] glucose uptake in A549 cells. In kind it is cell-based, human. As to conditions: read-out: IC50 uptake of 3H-labeled 3-O-methylglucose. On the procedure: FIGS. 2A-2D. Inhibition of Glucose Transport by A18 and E11. (a) Inhibition of 3-O-methyl¬D-[3H] glucose uptake in A549 cells by A18. (b) Inhibition of 3-O-methyl-D-[3H] glucose uptake in A549 cells by E11. (c) Inhibition of 2-deoxy-D-[3H] glucose uptake in A549 […] cells by A18. (d) Inhibition of 2-deoxy-D-[3H] glucose uptake in A549 cells by E11.
Direct action on glucose transporters was measured by monitoring uptake of 3H-labeled 3-O-methylglucose, which is transported by glucose transporters but not metabolized further, allowing the assessment of initial rate of glucose uptake. […] Initial uptake can also be assessed by measuring the uptake of 3H-labeled 2-deoxy-D-glucose, which gets into the cell through glucose transporters and is phosphorylated by hexokinase but cannot be metabolized further due to the lack of oxygen at the second position.

The subject of a further assay is HeLa. The assay can be described thus: alamar blue assay, HeLa. Format: cell-based.
Excerpt: as §1

Assay [1] concerns pancreatic cancer PANC10.05. The assay can be described thus: alamar blue assay, PANC10.05. Format: cell-based, human. As to conditions: PANC 10.05.
Excerpt: as §1

The test system of the next assay is IL2. The assay can be described thus: IL2 reporter / IL-2 production in Jurkat T cells. Format: cell-based. An excerpt:
FIGS. 28A-28D. (a) A18 and E11 inhibit NFAT and A18, but not E11, stimulates SRE reporter gene signal. (b) E11 inhibits NFAT, NF-κB and IL2, but not MEF-2 or AP-1 pathways, in Jurkat T cells. (c) Glucose inhibitor stimulates SRE reporter gene signal.
Both A18 and E11 have shown immunosuppressive activity, blocking NFAT reporter gene activation and IL-2 production (see e.g., FIG. 28). As such, they can be used as immunosuppressive agents that have applications in treating organ transplantation rejection and all kinds of autoimmune diseases. […]

The subject of assay [2] is DLD-1 GLUT1 gene knock out cells. The assay can be described thus: alamar blue cell viability assay, DLD-1 GLUT1 knock out. In kind it is cell-based.
Excerpt: as §2, §3

Another assay relates to breast cancer HCC1954. The assay can be described thus: alamar blue assay, HCC1954. In kind it is cell-based, human.
Excerpt: as §1

The next assay concerns AMPK. The assay can be described thus: Western blot, AMPK phosphorylation in HEK 293T. Format: cell-based.
Excerpt: as §4, §5
(Immunoblotting shows a protein as a band on a membrane.)

A further assay concerns leukemia Jurkat T. The assay can be described thus: alamar blue assay, Jurkat T. In kind it is cell-based, human.
Excerpt: as §1

By pIC50 is commonly meant the IC50 on a negative log10 scale, so that one unit is a factor of ten. On to Gly-^MSerBu-Nal-^MAla [E11], for which the pIC50 in the assay on colon cancer RKO was 6.15; with HEK293T (HEK293T, Table 3), 6.81; with HEK293T (HEK 293T, Table 4), 7.07; in the assay with glucose transporters, 7.42; in the assay on HeLa it was 6.42; in assay [1], 7.10. For the same molecule, the results for the pIC50 in the assay with breast cancer HCC1954 and in the assay with leukemia Jurkat T were 6.80 and 6.60, respectively. Also, the “additional cells in S phase” value in the assay with HEK 293T is given as “approximately 10%”. Besides, the “inhibition of cell proliferation, alamar blue” value with DLD-1 wild type was “kept inhibitory activity”; in assay [2], “didn't show any inhibition”. Also, the “mTOR inhibition (S6K)” value in the assay with mTOR is “mTOR inhibition”. The IL-2 production result in the assay on IL2 is listed as “blocking”. Besides, the IL2 pathway entry with IL2 (Jurkat T cells) is “inhibits”. Moreover, the “phosphorylation of AMPK” value in the assay with AMPK is “inducing phosphorylation of AMPK”.

Turning to `CC[C@@H](C)[C@H]1C(=O)NCC(=O)N(C)CC/C=C/C(=O)OCC(C)(C)C(=O)C(=O)N2CCCC[C@H]2C(=O)O[C@H](CCc2ccc(OC)c(OC)c2)c2cccc(c2)NC(=O)CCC(=O)N(C)[C@@H](CC(C)C)C(=O)N[C@H](Cc2ccccc2)C(=O)N1C` [A18], the pIC50 is 6.94 in the assay with colon cancer RKO (Homo sapiens); 6.96 in the assay on HEK293T (Homo sapiens, HEK-293T, HEK293T, Table 3); 7.16 in the assay with HEK293T (Homo sapiens, HEK-293T, HEK 293T, Table 4); 7.73 in the assay with glucose transporters; 6.55 in the assay with HeLa (Homo sapiens); 6.92 in [1] (Homo sapiens, Panc1005). In addition, the pIC50 with breast cancer HCC1954 (Homo sapiens) was 6.96; with leukemia Jurkat T (Homo sapiens) it was 6.88. The “additional cells in S phase” value with HEK 293T is “approximately 10%”. Besides, the “inhibition of cell proliferation, alamar blue” value (in the assay on DLD-1 wild type; in assay [2]) was “strongly inhibited” each time. Further, the “mTOR inhibition (S6K)” value in the assay on mTOR is “mTOR inhibition”. The IL-2 production entry with IL2 is given as “blocking”. Further, the “phosphorylation of AMPK” value with AMPK is “inducing phosphorylation of AMPK”.
